Like-named read-outs stand apart in the source and are kept apart here.
What was measured:
PTK6 (Brk) = PTK6 (Brk) (Homo sapiens, UniProt Q13882); assay: In vitro inhibition of tyrosine kinases; assay type: biochemical; conditions: read-out: Mean % Inhibition at 1 μM Compound-I; 1 μM (568.9 ng/mL)
[1] = 1- to 5-day PK with topical ocular Compound-I formulations (Example 5); assay type: in vivo, Dutch Belted rabbits; conditions: for concentration at 0.5 h / concentration at 8 h / concentration at 24 h / concentration at 4 h / concentration at 2 h / concentration at 1 h: Dutch Belted, rabbit, topical
Protocol: On day 1, Groups 1, 2, 4-6, 8, 10, 11, 13, 15, and 17 received one dose (q.d.) for either one (1) or four (4) days.
Peripheral retina and peripheral choroid samples were assayed only for Groups 1-8, 12, 14, and 16 per study protocol.

[2] = 5-day PK with topical ocular Compound-I in cyclodextrin-based solutions (Example 6); assay type: in vivo, Dutch-Belted rabbits; conditions: HPβCD solutions; for concentration at 1 h: q.d. groups (4, 5a, 6a, 7, 8, 11, 12), 4 days, 1 hr after first daily dose day 5
Protocol: All doses were administered with ±1 hour of the scheduled dose time, except on day 1 for Groups 1, 4, and 10. The first dose on day 1 was administered at 12:00 PM, and the second dose (for Groups 1 and 10) was administered approximately 4 hours after. This was due to delayed arrival of formulations. All other dosing for these groups was as scheduled. On day 1, Groups 4-8, and 11-12 received one dose (q.d.) for four (4) days. On days 1 through 4, Groups 1-3, and 9-10 received b.i.d. dosing approximately 8 hours apart for four (4) days.
Ocular sampling occurred one hour following the first daily dose on day 5 for all groups, except Groups 5b and 6b, where ocular sampling occurred 24 hours after the first daily dose on day 4.
Blood samples for plasma collection were obtained just prior to scheduled euthanasia for all animals. […] Cornea, central retina, and central choroid samples from groups 1-12 were assayed. Aqueous humor, peripheral retina, and peripheral choroid samples were not assayed.

pathologic angiogenesis = assay: Pathologic angiogenesis, rat growth plate model, systemic administration; assay type: in vivo
[3] = Groups 1, 5: one dose day 1, 0.5 hr post-dose
[4] = Groups 1, 5: one dose day 1, 24 hr post-dose

Chain of PTK6 (Brk) (Q13882 whole entry, species assumed): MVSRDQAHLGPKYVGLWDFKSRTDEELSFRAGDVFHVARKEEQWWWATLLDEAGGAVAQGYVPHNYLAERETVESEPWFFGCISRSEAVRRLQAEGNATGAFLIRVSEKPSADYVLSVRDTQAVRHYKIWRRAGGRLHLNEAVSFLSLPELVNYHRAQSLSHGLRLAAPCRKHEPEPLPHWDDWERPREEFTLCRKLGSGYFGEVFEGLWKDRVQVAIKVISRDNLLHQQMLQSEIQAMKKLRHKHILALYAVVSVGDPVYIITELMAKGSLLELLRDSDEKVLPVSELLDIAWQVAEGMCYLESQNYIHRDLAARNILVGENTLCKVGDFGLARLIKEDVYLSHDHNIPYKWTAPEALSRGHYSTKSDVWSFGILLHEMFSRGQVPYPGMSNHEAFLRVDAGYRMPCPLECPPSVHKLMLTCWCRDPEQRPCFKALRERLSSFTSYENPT

In the case of `Cl.NC(=O)c1c(OCc2c(F)cc(Br)cc2F)nsc1NC(=O)NCCCCN1CCCC1` [Compound-I, 3-[(4-bromo-2,6-difluorophenyl)methoxy]-5-[[[[4-(1-pyrrolidinyl)butyl]amino]carbonyl]amino]-4-isothiazolecarboxamide hydrochloride], the inhibition at 1 µM (PTK6 (Brk)) is reported as 88%, the concentration at 0.5 h ([1]; aqueous humor, 30 μL (bilateral), Groups 1, 5: one dose day 1, 0.5 hr post-dose, read-out: Average Concentration Aqueous Humor) is reported as 1.62 nM and the concentration at 8 h ([1]; aqueous humor, 30 μL (bilateral), Groups 1, 5: one dose day 1, 8 hr post-dose, read-out: Average Concentration Aqueous Humor) is reported as 6.67 nM. The concentration at 24 h ([1]; aqueous humor, 30 μL (bilateral), Groups 1, 5: one dose day 1, 24 hr post-dose, read-out: Average Concentration Aqueous Humor) was 3.03 nM, the concentration at 4 h ([1]; aqueous humor, 30 μL bilateral (each eye), Group 5: one dose day 1, 4 hr post-dose, read-out: Average Concentration Aqueous Humor) was 9.11 nM and the concentration at 2 h ([1]; aqueous humor, 30 μL bilateral (each eye), Groups 1, 5: one dose day 1, 2 hr post-dose, read-out: Average Concentration Aqueous Humor) was 8.62 nM. It also gave a concentration at 1 h ([1]; aqueous humor, 30 μL bilateral, Groups 1, 5: one dose day 1, 1 hr post-dose, read-out: Average Concentration Aqueous Humor) of 1.08 nM, a concentration at 1 h ([1]; central choroid, 30 μL (bilateral), q.d. groups (2,4,6,8,10,11,13,15,17), 4 days, 1 hr after day 5 morning dose, read-out: Average Concentration Central Choroid) of 196 nM and a concentration at 24 h ([1]; central choroid, 30 μL (bilateral, each eye), q.d. groups (2,6,8,11,13), 4 days, 24 hr after day 5 morning dose, read-out: Average Concentration Central Choroid) of 319 nM. For the same compound, the concentration at 24 h ([1]; central choroid, 30 μL per eye (bilateral), b.i.d. groups (3,7), 4 days, 24 hr after day 5 morning dose, read-out: Average Concentration Central Choroid) was 283 nM, the concentration at 24 h ([1]; central choroid, 30 μL, q.d. groups (2,6,8,11,13), 4 days, 24 hr after day 5 morning dose, read-out: Average Concentration Central Choroid) was 218 nM and the concentration at 8 h ([1]; central retina, 30 μL (bilateral), Groups 1, 5: one dose day 1, 8 hr post-dose, read-out: Average Concentration Central Retina) was 30.4 nM. The concentration at 1 h ([1]; central retina, 30 μL (bilateral), q.d. groups (2,4,6,8,10,11,13,15,17), 4 days, 1 hr after day 5 morning dose, read-out: Average Concentration Central Retina) was 36.3 nM, the concentration at 24 h ([1]; central retina, 30 μL (bilateral), q.d. groups (2,6,8,11,13), 4 days, 24 hr after day 5 morning dose, read-out: Average Concentration Central Retina) was 24.1 nM and the concentration at 4 h ([1]; central retina, 30 μL bilateral (each eye), Group 5: one dose day 1, 4 hr post-dose, read-out: Average Concentration Central Retina) was 29.9 nM. The concentration at 2 h ([1]; central retina, 30 μL bilateral (each eye), Groups 1, 5: one dose day 1, 2 hr post-dose, read-out: Average Concentration Central Retina) was 35.4 nM, the concentration at 24 h ([1]; central retina, 30 μL per eye (bilateral), b.i.d. groups (3,7), 4 days, 24 hr after day 5 morning dose, read-out: Average Concentration Central Retina) was 29.2 nM and the concentration at 8 h ([1]; central retina, 30 μL per eye (bilateral), q.d. groups (2,6), 4 days, 8 hr after day 5 morning dose, read-out: Average Concentration Central Retina) was 38 nM. It also gave a concentration at 24 h ([1]; central retina, 30 μL per eye (bilateral), q.d. groups (2,6,8,11,13), 4 days, 24 hr after day 5 morning dose, read-out: Average Concentration Central Retina) of 24.6 nM, a concentration at 1 h ([1]; central retina, 30 μL, b.i.d. groups (3,7,9,12,14,16), 4 days, 1 hr after day 5 morning dose, read-out: Average Concentration Central Retina) of 40.7 nM and a concentration at 4 h ([1]; cornea, 30 μL (bilateral), Group 5: one dose day 1, 4 hr post-dose, read-out: Average Concentration Cornea) of 14100 nM. For the same compound, the concentration at 2 h ([1]; cornea, 30 μL bilateral (each eye), Groups 1, 5: one dose day 1, 2 hr post-dose, read-out: Average Concentration Cornea) was 28100 nM, the concentration at 1 h ([1]; cornea, 30 μL bilateral, Groups 1, 5: one dose day 1, 1 hr post-dose, read-out: Average Concentration Cornea) was 16900 nM and the concentration at 4 h ([1]; peripheral choroid, 30 μL (bilateral), Group 5: one dose day 1, 4 hr post-dose, read-out: Average Concentration Peripheral Choroid) was 77.5 nM. The concentration at 8 h ([1]; peripheral choroid, 30 μL (bilateral), Groups 1, 5: one dose day 1, 8 hr post-dose, read-out: Average Concentration Peripheral Choroid) was 87.4 nM, the concentration at 24 h ([1]; peripheral choroid, 30 μL (bilateral), Groups 1, 5: one dose day 1, 24 hr post-dose, read-out: Average Concentration Peripheral Choroid) was 88 nM and the concentration at 1 h ([1]; peripheral choroid, 30 μL bilateral, Groups 1, 5: one dose day 1, 1 hr post-dose, read-out: Average Concentration Peripheral Choroid) was 47.3 nM. For the same compound, the concentration at 24 h ([1]; peripheral choroid, 30 μL per eye (bilateral), b.i.d. groups (3,7), 4 days, 24 hr after day 5 morning dose, read-out: Average Concentration Peripheral Choroid) was 892 nM, the concentration at 1 h ([1]; peripheral choroid, 30 μL per eye (bilateral), b.i.d. groups (3,7,12,14,16), 4 days, 1 hr after day 5 morning dose, read-out: Average Concentration Peripheral Choroid) was 765 nM and the concentration at 8 h ([1]; peripheral retina, 30 μL (bilateral), Groups 1, 5: one dose day 1, 8 hr post-dose, read-out: Average Concentration Peripheral Retina) was 33.3 nM. For the same compound, the concentration at 24 h ([1]; peripheral retina, 30 μL (bilateral), Groups 1, 5: one dose day 1, 24 hr post-dose, read-out: Average Concentration Peripheral Retina) was 15.1 nM, the concentration at 1 h ([1]; peripheral retina, 30 μL (bilateral), q.d. groups (2,4,6,8), 4 days, 1 hr after day 5 morning dose, read-out: Average Concentration Peripheral Retina) was 96.1 nM and the concentration at 4 h ([1]; peripheral retina, 30 μL bilateral (each eye), Group 5: one dose day 1, 4 hr post-dose, read-out: Average Concentration Peripheral Retina) was 31.2 nM. The concentration at 0.5 h ([1]; peripheral retina, 30 μL bilateral, Groups 1, 5: one dose day 1, 0.5 hr post-dose, read-out: Average Concentration Peripheral Retina) was 22.7 nM, the concentration at 8 h ([1]; peripheral retina, 30 μL per eye (bilateral), q.d. groups (2,6), 4 days, 8 hr after day 5 morning dose, read-out: Average Concentration Peripheral Retina) was 50.8 nM and the concentration at 1 h ([1]; peripheral retina, 30 μL, b.i.d. groups (3,7,12,14,16), 4 days, 1 hr after day 5 morning dose, read-out: Average Concentration Peripheral Retina) was 108 nM. For the same compound, the “Average Concentration Central Choroid” value ([1]; Group 5: one dose day 1, 4 hr post-dose) was “<LLOQ”, the “Average Concentration Central Choroid” value [1, 3] was “<LLOQ” and the “Average Concentration Peripheral Choroid” value [1, 3] was “<LLOQ”. The “Average Concentration Central Choroid” value ([1]; Groups 1, 5: one dose day 1, 1 hr post-dose) was “<LLOQ”, the “Average Concentration Central Choroid” value ([1]; Groups 1, 5: one dose day 1, 2 hr post-dose) was “<LLOQ” and the “Average Concentration Central Choroid” value ([1]; Groups 1, 5: one dose day 1, 8 hr post-dose) was “<LLOQ”. For the same compound, the “Average Concentration Central Choroid” value [1, 4] was “<LLOQ”, the “Average Concentration Central Retina” value [1, 4] was “<LLOQ” and the concentration at 24 h ([2]; Dutch-Belted, rabbit, central choroid, topical, 30 μL bilateral, q.d. groups 5b, 6b, 24 hr after first daily dose day 4) was 194 nM. For the same compound, the concentration at 1 h ([2]; Dutch-Belted, rabbit, central choroid, topical, 30 μL bilateral, read-out: Average Concentration Central Choroid) was 203 nM, the concentration at 1 h ([2]; Dutch-Belted, rabbit, central retina, topical, 30 μL bilateral, read-out: Average Concentration Central Retina) was 48.1 nM and the “Average Concentration Central Retina” value ([2]; q.d. groups 5b, 6b, 24 hr after first daily dose day 4) was “<LLOQ”. For the same compound, the Pathologic angiogenesis (pathologic angiogenesis) was “inhibit”.

Source: US10183014B2, “Ocular formulations for drug-delivery and protection of the anterior segment of the eye” (PanOptica, Inc., priority 2014, dated 2019)
